Peptide text beside a SMILES is read from it. * marks the point of attachment. Cbz = O=C(OCc1ccccc1)*
Assays:
[1] = system: ubiquitinated SMN protein in NSC34 cells; assay: Cellular ubiquitination of SMN (anti-SMN immunoprecipitation, anti-ubiquitin blot); format: cell-based; settings: different concentrations of inhibitor
Description: Immunoprecipitation assays were performed as previously described with some modifications. Cells with endogenous or ectopically expressed UCHL1 were lysed with RIPA buffer containing 0.2% SDS. After sonication, the lysate was diluted with modified RIPA containing 1% NP-40 for immunoprecipitation. Anti-UCHL1 or anti-SMN antibodies were used to immunoprecipitate the protein. The re-suspended IP complexes were then analyzed by Western blot.
Next, to determine the functional significance of this interaction, purified UCHL1 tagged with 6×His was co-incubated with SMN immunoprecipitate and in vitro ubiquitination assay was performed. […] The SMN protein complex was immunoprecipitated from total cell extract treated with different concentrations of UCHL1 inhibitor and the level of ubiquitinated SMN was determined by the use of anti-ubiquitin antibody.

[2] = system: SMN protein in SMA patients' skin fibroblast cells; assay: Cellular SMN protein level in SMA patients' skin fibroblast cells; format: cell-based, human
Description: (§1) Western blot analysis and immunohistochemical staining were performed as described previously. The primary antibodies used in this study were β-actin (1:2,000, Santa Cruz, 1-19), SMN (1:1,000, Santa Cruz, SC-32313), Gemin 2, Gemin 3 and Gemin 5 polyclonal antibody (1:200, Santa Cruz), UCHL1 monoclonal antibodies (1:2,000, Calbiochem.), HA-tag (1:2,000, Sigma), FITC-conjugated anti-mouse, alkaline phosphatase-conjugated anti-rabbit antibodies (1:500, Jackson ImmunoResearch Lab.) and anti-EGFP rabbit polyclonal antibody (1:5,000, produced in-house).
In order to investigate the possibility of therapeutic application, the UCHL1 specific inhibitor was also applied to the SMA patients' skin fibroblast cells. Type II and type III SMA skin fibroblast cells were treated with MG132, a proteasome inhibitor, and LDN-57444.

[3] = system: SMN protein in NSC34 cells; assay: Cellular SMN protein level after LDN-57444 treatment (Western blot); format: cell-based; settings: for SMN protein expression level increase compared to the vehicle group: 5 μM; for SMN protein increase: 10 μM
Description: as §1
The cellular function of UCHL1 on SMN protein was further characterized with an over-expression assay. The UCHL1 was tagged with HA tag and over expressed in HEK293, p19 and NSC34 cells to evaluate the cellular function. […] The regulatory effect of UCHL1 was also confirmed with UCHL1 specific inhibitor (FIGS. 5A and 5B). SMN protein could effectively elevate expression level at 5 μM after LDN-57444 treatment for 8 (38%), 16 (42%), 24 (43%) and 48 (46%) hours compared to the vehicle group (FIGS. 5A and 5B).

[4] = system: nucleus gems in NSC34 cells; assay: Nucleus gems count by immunofluorescence staining (anti-Gemin 2); format: cell-based; settings: for increase of gems number per one hundred cells comparing to vehicle: NSC34 cells, 10 μM; for Total number of nucleus gems per 100 cells: NSC-34 cells
Description: The cellular expression localization of UCHL1 and SMN was determined by immunofluorescence as previously described (Hsu, S. H. et al. (2004) Exp Cell Res, 294, 185-198). HEK 293 and NSC34 cells were cultured on coverslides pre-coated with poly-L-lysine for 16 hours. After washing with cold PBS, cells were fixed with 2% paraformaldehyde in PBS for 30 minutes on ice, and then the slides were washed with PBS for 30 minutes. Cells were permeabilized with buffer containing 0.2% Triton X-100 and 1% NGS in PBS for 20 minutes on ice, and then the slides were washed with PBS to remove excess detergent. Cells were then incubated in anti-EGFP (or anti-HA) and anti-SMN polyclonal antibody (1:200) for 1 hour at room temperature. After washing cells with PBS for 30 minutes, FITC-conjugated […] anti-rabbit and -mouse polyclonal antibody (1:300) was added and the cells were incubated for another 1 hour at room temperature in a humid chamber. Cells were finally counterstained with DAPI to localize the nucleus and observed by confocal microscopy.
In additional to the use of specific UCHL1 inhibitor, the specific shRNAi constructs for UCHL1 were also used to monitor the regulatory effects of UCHL1 on SMN protein. […] The knockdown efficiency of these shRNAi constructs to UCHL1 was 25, 70 and 47% of vector control and the SMN protein was increased 32, 46 and 47% (FIG. 5D). […] The cellular function of elevated SMN was also examined with nucleus gems by immuno-fluorescence staining (FIG. 5E). The nucleus gems stained with anti-Gemin 2 antibody were counted for one hundred NSC34 treated with vehicle or LDN-57444 for 24 hours and 48 hours.

CC(C)C[C@@H](C=O)NC(=O)[C@H](CC(C)C)NC(=O)[C@H](CC(C)C)NC(=O)OCc1ccccc1 [MG132] (Cbz-Leu-Leu-Leu-aldehyde)
level of ubiquitinated SMN protein [1]: same enhancement
cellular SMN protein level (in words) ([2]; SMA skin fibroblast cells, positive control): increased cellular SMN protein level

CC(=O)O/N=C1\C(=O)N(Cc2cc(Cl)ccc2Cl)c2ccc(Cl)cc21 [LDN-57444]
SMN protein expression level increase compared to the vehicle group ([3]; 8 hours): 38%
SMN protein expression level increase compared to the vehicle group ([3]; 16 hours): 42%
SMN protein expression level increase compared to the vehicle group ([3]; 24 hours): 43%
SMN protein expression level increase compared to the vehicle group ([3]; 48 hours): 46%
SMN protein increase ([3]; 8 hours): 40%
SMN protein increase ([3]; 16 hours): 56%
SMN protein increase ([3]; 24 hours): 83%
SMN protein increase ([3]; 48 hours): 53%
SMN protein level, time course at high dosage ([3]; 15 μM): time delay increase in SMN protein level until 16 hours
increase of gems number per one hundred cells comparing to vehicle ([4]; 24 hours): 2.25 fold
increase of gems number per one hundred cells comparing to vehicle ([4]; 48 hours): 2.54 fold
Total number of nucleus gems per 100 cells ([4]; 10 μmol/l, 24 h): 142±7.55 per 100 cells
Total number of nucleus gems per 100 cells ([4]; 10 μmol/l, 48 h, medium and LDN-57444 replaced each day): 164 ± 8.50 per 100 cells
Total number of nucleus gems per 100 cells ([4]; 20 μmol/l, 24 h): 189 ± 10.72 per 100 cells
Total number of nucleus gems per 100 cells ([4]; 20 μmol/l, 48 h, medium and LDN-57444 replaced each day): 193 ± 10.21 per 100 cells
increase of cellular SMN protein level ([2]; type I SMA skin fibroblast cells): 52-62%
increase of cellular SMN protein level ([2]; type II SMA skin fibroblast cells): 31-38%
increase of cellular SMN protein level ([2]; type III SMA skin fibroblast cells): 72-87%

From patent US9045793B2, “Method of regulating the expression level of survival of motor neuron 1” (KAOHSIUNG MEDICAL UNIVERSITY, priority 2011, dated 2015)
